Target: T1, CDK2 (Homo sapiens, UniProt P24941)
T1 construct: endogenous in cells; host or cells: MKN1 cells
Assay: CDK2 degradation in MKN1 cells (AlphaLISA)
Format: cell-based
Details: 14 h incubation; for DC50: read-out: CDK2 degradation 14 h: Mean external-Abs DC50
Outline: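 DC50 from four-parameter logistic fit of AlphaLISA CDK2 signal, corrected for no-cell wells. Lysates came from MKN1 cells, 2e4 per well, exposed 14 h at 37° C to compound at 0.001 nM-10 μM (1:5 series, 11 doses) in 0.1% DMSO.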

| SMILES | CDK2 degradation 14 h: Average Dmax % | DC50 [nM] |
| --- | --- | --- |
| Cc1nn(C2CCC(=O)NC2=O)c2ccc(N3CCN(CC4CCC(NS(=O)(=O)c5ccc(Nc6ncc(C(F)(F)F)c(N7CCCC(C)(O)C7)n6)c(F)c5)CC4)CC3)cc12 (stereo not drawn) [I-1065] | A (A (>75% o)) | < 100 |
| Cc1cc(S(=O)(=O)NC2CCC(CN3CCN(c4ccc(C5CCC(=O)NC5=O)c(F)c4)CC3)CC2)ncc1Nc1ncc(C(F)(F)F)c(N2CCCC(C)(O)C2)n1 (stereo not drawn) [I-1066] | A (A (>75% o)) | < 100 |
| CC(C1CCN(c2ccc(C3CCC(=O)NC3=O)c(F)c2)CC1)N1CCC(NS(=O)(=O)c2ccc(Nc3ncc(C(F)(F)F)c(N4CCCC(C)(O)C4)n3)c(F)c2)C(F)C1 (stereo not drawn) [I-1067] | A (A (>75% o)) | < 100 |
| CC1(O)CCCN(c2nc(Nc3ccc(S(=O)(=O)NC4CCN(CC5(C)CCN(c6ccc(C7CCC(=O)NC7=O)cc6F)CC5)CC4F)cc3F)ncc2C(F)(F)F)C1 (stereo not drawn) [I-1068] | A (A (>75% o)) | 100 to 500 |
| CC1(O)CCCN(c2nc(Nc3ccc(S(=O)(=O)NC4CCN(CC5(C)CCN(c6ccc(C7CCC(=O)NC7=O)c(F)c6)CC5)CC4F)cc3F)ncc2C(F)(F)F)C1 (stereo not drawn) [I-1069] | A (A (>75% o)) | < 100 |
| COCc1cc(S(=O)(=O)NC2CCC(CN3CCN(c4ccc(C5CCC(=O)NC5=O)c(F)c4)CC3)CC2)ccc1Nc1ncc(C(F)(F)F)c(N2CCCC(C)(O)C2)n1 (stereo not drawn) [I-1070] | A (A (>75% o)) | < 100 |
| Cc1cc(S(=O)(=O)NC2CCC(CN3CCN(c4ccc(C5CCC(=O)NC5=O)c(F)c4)CC3)CC2)ccc1Nc1ncc(C(F)(F)F)c(N2CCCC(C)(O)C2)n1 (stereo not drawn) [I-1072] | – | < 100 |
| [2H]C([2H])([2H])c1cc(S(=O)(=O)NC2CCC(CN3CCN(c4ccc(C5CCC(=O)NC5=O)c(F)c4)CC3)CC2)ccc1Nc1ncc(C(F)(F)F)c(N2CCCC(C)(O)C2)n1 (stereo not drawn) [I-1072] | A (A (>75% o)) | – |
| CC1(O)CCCN(c2nc(Nc3ccc(S(=O)(=O)NC4CC(CCN5CCN(c6ccc(C7CCC(=O)NC7=O)c(F)c6)CC5)C4)cc3C(F)F)ncc2C(F)(F)F)C1 (stereo not drawn) [I-1073] | B (B (>50% -75%)) | < 100 |
| CC1(O)CCC(c2nc(Nc3ccc(S(=O)(=O)NC4CCC(CN5CCN(c6ccc(C7CCC(=O)NC7=O)c(F)c6)CC5)CC4)cc3F)ncc2C(F)(F)F)CC1 (stereo not drawn) [I-1074] | A (A (>75% o)) | 100 to 500 |
| CC1(O)CCCN(c2nc(Nc3ccc(S(=O)(=O)NC4CCC(CCN5CCN(c6ccc(C7CCC(=O)NC7=O)c(F)c6)CC5)CC4)cc3C(F)F)ncc2C(F)(F)F)C1 (stereo not drawn) [I-1076] | B (B (>50% -75%)) | 100 to 500 |
| Cc1cc(S(=O)(=O)NC2CCC(CN3CCN(c4ccc(C5CCC(=O)NC5=O)c(F)c4)CC3)CC2)c(F)cc1Nc1ncc(C(F)(F)F)c(N2CCCC(C)(O)C2)n1 (stereo not drawn) [I-1096] | A (A (>75% o)) | < 100 |
| Cc1cc(S(=O)(=O)NC2CCC(CN3CCN(c4ccc(C5CCC(=O)NC5=O)c(F)c4)CC3)CC2)cc(F)c1Nc1ncc(C(F)(F)F)c(N2CCCC(C)(O)C2)n1 (stereo not drawn) [I-1097] | A (A (>75% o)) | < 100 |
| CC1(O)CCCN(c2nc(Nc3ccc(S(=O)(=O)NC4CCC(CN5CCN(c6ccc(C7CCC(=O)NC7=O)cc6)CC5)CC4)cc3Cl)ncc2C(F)(F)F)C1 (stereo not drawn) [I-1100] | A (A (>75% o)) | < 100 |
| CC1(O)CCCN(c2nc(Nc3ccc(S(=O)(=O)NC4CCC(CN5CCN(c6ccc(C7CCC(=O)NC7=O)cc6)CC5)CC4)cc3C(F)(F)F)ncc2C(F)(F)F)C1 (stereo not drawn) [I-1101] | B (B (>50% -75%)) | 100 to 500 |
| CC1(O)CCCN(c2nc(Nc3ccc(S(=O)(=O)NC4CCC(CN5CCN(c6ccc(C7CCC(=O)NC7=O)cc6)CC5)CC4)cc3C(F)F)ncc2C(F)(F)F)C1 (stereo not drawn) [I-1102] | A (A (>75% o)) | < 100 |
| CC1(O)CCCN(c2nc(Nc3ccc(S(=O)(=O)NC4CCC(CN5CCN(c6ccc(C7CCC(=O)NC7=O)c(Cl)c6)CC5)CC4)cc3C(F)(F)F)ncc2C(F)(F)F)C1 (stereo not drawn) [I-1103] | C (C (>25% -50%)) | > 1000 |
| CC1(O)CCCN(c2nc(Nc3ccc(S(=O)(=O)NC4CCC(CN5CCN(c6ccc(C7CCC(=O)NC7=O)c(Cl)c6)CC5)CC4)cc3C(F)F)ncc2C(F)(F)F)C1 (stereo not drawn) [I-1104] | A (A (>75% o)) | < 100 |
| Cc1c(Nc2ncc(C(F)(F)F)c(N3CCCC(C)(O)C3)n2)ccc(S(=O)(=O)NC2CCC(CN3CCN(c4ccc(C5CCC(=O)NC5=O)c(F)c4)CC3)CC2)c1F (stereo not drawn) [I-1105] | A (A (>75% o)) | < 100 |
| CC1(O)CCCN(c2nc(Nc3ccc(S(=O)(=O)NC4CCC(CN5CCN(c6ccc(C7CCC(=O)NC7=O)c(Cl)c6)CC5)CC4)cc3F)ncc2C(F)(F)F)C1 (stereo not drawn) [I-1107] | A (A (>75% o)) | < 100 |

| SMILES | CDK2 degradation 14 h: Average Dmax % | DC50 [nM] |
| --- | --- | --- |
| CC1(O)CCCN(c2nc(Nc3ccc(S(=O)(=O)NC4CCC(CN5CCN(c6ccc(C7CCC(=O)NC7=O)cc6F)CC5)CC4)cc3C(F)(F)F)ncc2C(F)(F)F)C1 (stereo not drawn) [I-1110] | B (B (>50% -75%)) | 100 to 500 |
| CC1(O)CCCN(c2nc(Nc3ccc(S(=O)(=O)NC4CCC(CN5CCN(c6ccc(C7CCC(=O)NC7=O)cc6F)CC5)CC4)cc3OC(F)F)ncc2C(F)(F)F)C1 (stereo not drawn) [I-1111] | A (A (>75% o)) | 100 to 500 |
| CC1(O)CCCN(c2nc(Nc3ccc(S(=O)(=O)NC4CCC(CN5CCN(c6ccc(C7CCC(=O)NC7=O)cc6F)CC5)CC4)cc3Cl)ncc2C(F)(F)F)C1 (stereo not drawn) [I-1112] | A (A (>75% o)) | < 100 |
| CC1(O)CCCN(c2nc(Nc3ccc(S(=O)(=O)NC4CCC(CN5CCN(c6ccc(C7CCC(=O)NC7=O)cc6F)CC5)CC4)cc3C(F)F)ncc2C(F)(F)F)C1 (stereo not drawn) [I-1113] | A (A (>75% o)) | < 100 |
| CC1(O)CCCN(c2nc(Nc3ccc(S(=O)(=O)NC4CCC(CN5CCN(c6ccc(C7CCC(=O)NC7=O)c(F)c6)CC5)CC4)cc3C(F)(F)F)ncc2C(F)(F)F)C1 (stereo not drawn) [I-1114] | B (B (>50% -75%)) | 100 to 500 |
| CC1(O)CCCN(c2nc(Nc3ccc(S(=O)(=O)NC4CCC(CN5CCN(c6ccc(C7CCC(=O)NC7=O)c(F)c6)CC5)CC4)cc3OC(F)F)ncc2C(F)(F)F)C1 (stereo not drawn) [I-1115] | A (A (>75% o)) | 100 to 500 |
| CC1(O)CCCN(c2nc(Nc3ccc(S(=O)(=O)NC4CCC(CN5CCN(c6ccc(C7CCC(=O)NC7=O)c(F)c6)CC5)CC4)cc3F)ncc2C(F)(F)F)C1 (stereo not drawn) [I-1117] | A (A (>75% o)) | < 100 |
| Cc1cc(S(=O)(=O)NC2CCC(CN3CCN(c4cccc(NC5CCC(=O)NC5=O)c4)CC3)CC2)ccc1Nc1ncc(C(F)(F)F)c(N2CCCC(C)(O)C2)n1 (stereo not drawn) [I-1118] | A (A (>75% o)) | < 100 |
| Cc1cc(S(=O)(=O)NC2CCC(CN3CCN(c4cc(NC5CCC(=O)NC5=O)ccc4F)CC3)CC2)ccc1Nc1ncc(C(F)(F)F)c(N2CCCC(C)(O)C2)n1 (stereo not drawn) [I-1120] | A (A (>75% o)) | < 100 |
| Cc1cc(S(=O)(=O)NC2CCC(CN3CCN(c4cc(F)cc(NC5CCC(=O)NC5=O)c4)CC3)CC2)ccc1Nc1ncc(C(F)(F)F)c(N2CCCC(C)(O)C2)n1 (stereo not drawn) [I-1122] | A (A (>75% o)) | < 100 |
| Cc1cc(S(=O)(=O)NC2CCC(CN3CCN(c4ccc(C(=O)NC5CCC(=O)NC5=O)cc4C)CC3)CC2)ccc1Nc1ncc(C(F)(F)F)c(N2CCCC(C)(O)C2)n1 (stereo not drawn) [I-1126] | A (A (>75% o)) | 100 to 500 |
| Cc1cc(S(=O)(=O)NC2CCC(CN3CCC(c4ccc(C5CCC(=O)NC5=O)c(F)c4)CC3)CC2)ccc1Nc1ncc(C(F)(F)F)c(N2CCCC(C)(O)C2)n1 (stereo not drawn) [I-1131] | A (A (>75% o)) | < 100 |
| Cc1cc(S(=O)(=O)NC2CCC(CN3CCN(c4ccc(C5CCC(=O)NC5=O)cc4F)C(C)C3)CC2)ccc1Nc1ncc(C(F)(F)F)c(N2CCCC(C)(O)C2)n1 (stereo not drawn) [I-1137] | A (A (>75% o)) | < 100 |
| Cc1cc(S(=O)(=O)NC2CCC(CN3CCN(c4ccc(C5CCC(=O)NC5=O)c(C(F)(F)F)c4)CC3)CC2)ccc1Nc1ncc(C(F)(F)F)c(N2CCCC(C)(O)C2)n1 (stereo not drawn) [I-1138] | B (B (>50% -75%)) | > 1000 |
| Cc1cc(S(=O)(=O)NC2CCN(CC3CCN(c4ccc(C5CCC(=O)NC5=O)cc4F)CC3)CC2F)ccc1Nc1ncc(C(F)(F)F)c(N2CCCC(C)(O)C2)n1 (stereo not drawn) [I-1140] | A (A (>75% o)) | < 100 |
| Cc1cc(S(=O)(=O)NC2CCN(CC3CCN(c4ccc(C5CCC(=O)NC5=O)cc4F)CC3)CC2F)ccc1Nc1ncc(C(F)(F)F)c(N2CCCC(C)(O)C2)n1 (stereo not drawn) [I-1141] | A (A (>75% o)) | < 100 |
| Cc1cc(S(=O)(=O)NC2CCC(CN3CCN(c4ncc(C5CCC(=O)NC5=O)cc4F)CC3)CC2)ccc1Nc1ncc(C(F)(F)F)c(N2CCCC(C)(O)C2)n1 (stereo not drawn) [I-1142] | A (A (>75% o)) | < 100 |
| Cc1cc(S(=O)(=O)NC2CCC(CN3CCN(c4cccc(NC5CCC(=O)NC5=O)c4F)CC3)CC2)ccc1Nc1ncc(C(F)(F)F)c(N2CCCC(C)(O)C2)n1 (stereo not drawn) [I-1143] | A (A (>75% o)) | < 100 |
| Cc1cc(S(=O)(=O)NC2CCC(CN3CCN(c4cc(F)cc(NC5CCC(=O)NC5=O)c4)CC3)CC2)ccc1Nc1ncc(C(F)(F)F)c(N2CCCC(C)(O)C2)n1 (stereo not drawn) [I-1144] | A (A (>75% o)) | 100 to 500 |
| Cc1cc(S(=O)(=O)NC2CCC(CN3CCN(c4cccc5c4n(C)c(=O)n5C4CCC(=O)NC4=O)CC3)CC2)ccc1Nc1ncc(C(F)(F)F)c(N2CCCC(C)(O)C2)n1 (stereo not drawn) [I-1145] | A (A (>75% o)) | < 100 |

— US20240173419A1, “CDK2 DEGRADERS AND USES THEREOF” (Kymera Therapeutics, Inc., priority 2022, published 2024)
